According to PubChem BioAssay (NCI):
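Five concentrations, 48 hours, 96-well plates. TGI marks complete inhibition of growth.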

Assays:
Test in all cases: inhibition of tumour cell growth, NCI panel, 48 h
786-0 renal = tested on: 786-0 renal
A498 renal = tested on: A498 renal
A549 NSCLC = tested on: A549 NSCLC
ACHN renal = tested on: ACHN renal
BT-549 breast = tested on: BT-549 breast
CAKI-1 renal = tested on: CAKI-1 renal
CCRF-CEM leukemia = tested on: CCRF-CEM leukemia
COLO 205 colon = tested on: COLO 205 colon
DU-145 prostate = tested on: DU-145 prostate
EKVX NSCLC = tested on: EKVX NSCLC
HCC-2998 colon = tested on: HCC-2998 colon
HCT-116 colon = tested on: HCT-116 colon
HCT-15 colon = tested on: HCT-15 colon
HOP-62 NSCLC = tested on: HOP-62 NSCLC
HOP-92 NSCLC = tested on: HOP-92 NSCLC
HS 578T breast = tested on: HS 578T breast
HT29 colon = tested on: HT29 colon
IGROV1 ovarian = tested on: IGROV1 ovarian
K-562 leukemia = tested on: K-562 leukemia
KM12 colon = tested on: KM12 colon
LOX IMVI melanoma = tested on: LOX IMVI melanoma
M14 melanoma = tested on: M14 melanoma
MALME-3M melanoma = tested on: MALME-3M melanoma
MCF7 breast = tested on: MCF7 breast
MDA-MB-231 breast = tested on: MDA-MB-231 breast
MDA-MB-435 = tested on: MDA-MB-435
MDA-N = tested on: MDA-N
MOLT-4 leukemia = tested on: MOLT-4 leukemia
NCI-H226 lung = tested on: NCI-H226 lung
NCI-H23 lung = tested on: NCI-H23 lung
NCI-H460 lung = tested on: NCI-H460 lung
NCI-H522 lung = tested on: NCI-H522 lung
NCI/ADR-RES ovarian = tested on: NCI/ADR-RES ovarian
OVCAR-3 ovarian = tested on: OVCAR-3 ovarian
OVCAR-4 ovarian = tested on: OVCAR-4 ovarian
OVCAR-5 ovarian = tested on: OVCAR-5 ovarian
OVCAR-8 ovarian = tested on: OVCAR-8 ovarian
PC-3 prostate = tested on: PC-3 prostate
RPMI-8226 leukemia = tested on: RPMI-8226 leukemia
RXF 393 renal = tested on: RXF 393 renal
SF-268 CNS = tested on: SF-268 CNS
SF-295 CNS = tested on: SF-295 CNS
SF-539 CNS = tested on: SF-539 CNS
SK-MEL-2 melanoma = tested on: SK-MEL-2 melanoma
SK-MEL-28 melanoma = tested on: SK-MEL-28 melanoma
SK-MEL-5 melanoma = tested on: SK-MEL-5 melanoma
SK-OV-3 ovarian = tested on: SK-OV-3 ovarian
SN12C renal = tested on: SN12C renal
SNB-19 CNS = tested on: SNB-19 CNS
SNB-75 CNS = tested on: SNB-75 CNS
SR leukemia = tested on: SR leukemia
SW-620 colon = tested on: SW-620 colon
T-47D breast = tested on: T-47D breast
TK-10 renal = tested on: TK-10 renal
U251 CNS = tested on: U251 CNS
UACC-257 melanoma = tested on: UACC-257 melanoma
UACC-62 melanoma = tested on: UACC-62 melanoma
UO-31 renal = tested on: UO-31 renal

Measured: TGI

CC1(C)[C@@H]2CC[C@@]1(C)CN(CCC[N+](C)(C)C)C2
> 100 µM: all assays above
